In patent publication US9345696B2, “Methods for treating nicotinic acetylcholine receptor associated diseases” (priority 2010, dated 2016):

Key:
[1] = system: binocular zone of V1 of Lynx1 knockout and wild-type mice; assay: Ocular dominance plasticity after short-term monocular deprivation, extracellular recording in vivo (contralateral bias index); parameters: species or system mouse; details: for effect on adult ocular dominance plasticity in Lynx1 knockout mice (in words): concurrent with short-term MD
Procedure: (§1) Eyelid margins were trimmed by iris scissor and eyes sutured shut under isoflurane anesthesia. Eyes were closed 4-5 days for short term MD (STMD), from P19 to >P60 for long term MD (CP-LTMD), and from P19 to P33 for recovery studies.
Electrophysiological recording was performed under nembutal/chlorprothixene anesthesia using standard techniques for mice (T. K. Hensch et al., Science 282: 1504 (1998); J. A. Gordon, M. P. Stryker, J Neurosci 16: 3274 (1996). Ocular dominance in the binocular zone of each mouse was calculated as a contralateral bias index (CBI): [(n1−n7)+2/3(n2−n6)+⅓(n3−n5)+N]/2N, where N=total number of cells and nx=number of cells corresponding to ocular dominance score of x (J. A. Gordon, M. P. Stryker, J Neurosci 16, 3274 (1996)). For statistical comparison of OD distributions, normalized OD scores of single neurons were plotted as cumulative distribution for each experimental group. OD score was computed by PSTH analysis of peak to baseline spiking activity in response to each eye: {[Peak(ipsi)−baseline(ipsi)]−[Peak(contra)-baseline(contra)]}/{[Peak(ipsi)-baseline(ipsi)]+[Peak(contra)-baseline(contra)]}(T. Pizzorusso et al., Science, 298: 1248 (2002)).

[2] = system: V1 of wild-type mice; assay: Recovery from amblyopia: visual acuity by visual evoked potentials in V1 after long-term MD and eye reopening; type: in vivo, mouse; details: WT mice
Description: as §1

## CN1C(=O)CN=C(c2ccccc2)c2cc(Cl)ccc21 [Diazepam]
[1]; adult Lynx1 KO mice, adult MD, focal infusion into V1 by osmotic minipump
  contralateral bias index (CBI): 0.67
[1]; adult Lynx1 KO mice
  effect on adult ocular dominance plasticity in Lynx1 knockout mice (in words): abolished adult plasticity

## CNC1(C)C2CCC(C2)C1(C)C (centres unmarked) [mecamylamine]
[1]; adult Lynx1 KO mice
  effect on adult ocular dominance plasticity in Lynx1 knockout mice (in words): sufficient to prevent adult plasticity
[1]; adult Lynx1 KO mice, no MD, with mecamylamine
  contralateral bias index (CBI): 0.68
[1]; adult Lynx1 KO mice, short-term MD with concurrent nAChR antagonist (systemic i.p. daily or cortical minipump infusion)
  contralateral bias index (CBI): 0.68
[1]; adult WT mice, short-term MD with concurrent mecamylamine
  contralateral bias index (CBI): 0.69

## CNC(=O)Oc1ccc2c(c1)[C@]1(C)CCN(C)[C@@H]1N2C [physostigmine]
[2]; LTMD P19 to P33, deprived eye reopened, 0.1 mg/kg i.p. daily from P45, recorded >P60
  Visual acuity (VEP): 0.48±0.06 cyc/deg
[2]; no MD, with AChEI
  Visual acuity (VEP): 0.47±0.02 cyc/deg
